Structures are written as SMILES.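 Method: 48-hour compound exposure of cells in 96-well plates, five concentrations, linear interpolation of endpoints. GI50: concentration for 50% inhibition of growth.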 Active and inactive are the calls of the source. Cut-off read from the data, not from the text of the source: active = GI50 up to about 1.1 µM and inactive = higher. Starred links: 1 amine or outer side, 2 acyl side, 3 side chain; linkers in the order of their positions; H or OH if unused. Positions of bridges follow the written chain, without caps; N, C: chain ends. Non-standard residues stand in square brackets, D forms with d. Residues, ends and D or L forms follow the SMILES beside them. ξ: configuration not given here. X37 = CC[C@H](C)[C@@H](N[*:1])[C@@H](O)CC(=O)O[C@H](C(=O)[C@H](C)C(=O)[*:2])C(C)C; NMeY = CN[C@@H](Cc1ccc(O)cc1)C(=O)O; dNMeL = CN[C@H](CC(C)C)C(=O)O; ξΔPro = O=C(O)C1C=CCN1 A value given as a limit tells only on which side of the number the result lay.

Holding throughout (assay): DTP human tumour cell line panel, 48 h
For assay [1], the system named is SK-MEL-28.
Assay [2] concerns NCI-H226.
Assay [3] deals with HOP-62.
The subject of assay [4] is MCF7.
Assay [5] concerns EKVX.
In assay [6] the test system is RXF 393.
For assay [7], the system named is HOP-92.
In assay [8] the test system is SK-MEL-5.
Assay [9] relates to MDA-MB-435.
The subject of assay [10] is MDA-N.
For assay [11], the system named is K562.
Assay [12] concerns UO-31.
The subject of assay [13] is SF-268.
In assay [14] the test system is HCT-15.
Assay [15] relates to UACC-62.
Assay [16] relates to A549.
The test system of assay [17] is MOLT-4.
The subject of assay [18] is SN12C.
Assay [19] has as its system CAKI-1.

Regarding `COc1cccc(N2C(=O)C3c4[nH]c5ccccc5c4C4c5ccccc5CCC4C3C2=O)c1` (stereo not given), the GI50 in assay [1] is > 9.55 µM (inactive); in assay [2], > 4.37 µM (inactive); in assay [3] it was 2.4 µM (inactive); in assay [4], > 10 µM (inactive); in [5], > 9.31 µM (inactive); in assay [6] it was > 6.62 µM (inactive). In addition, the GI50 in assay [7] is 6.15 µM (inactive); in [8] it was > 8.81 µM (inactive); in assay [9], > 7.5 µM (inactive); in assay [10], > 8.28 µM (inactive); in [11] it was > 10 µM (inactive); in assay [12] it was 4.27 µM (inactive). In addition, the GI50 in assay [13] is 4.16 µM (inactive); in assay [14], greater than 10 µM; in assay [15], > 10 µM (inactive); in assay [16], 6.12 µM (inactive); in [17] it was > 10 µM (inactive); in assay [18] it was > 6.03 µM (inactive). Besides, the GI50 in [19] is > 10 µM (inactive).

`CC[C@H](C)[C@H]1NC(=O)[C@@H](NC(=O)[C@@H](CC(C)C)N(C)C(=O)C2C=CCN2)[C@@H](C)OC(=O)[C@H](Cc2ccc(OC)cc2)N(C)C(=O)[C@@H]2CCCN2C(=O)[C@H](CC(C)C)NC(=O)[C@@H](C)C(=O)[C@H](C(C)C)OC(=O)C[C@@H]1O` (stereo not given in full) (H-[ξΔPro][dNMeL]T[X37]LP[NMeY](Me); ester 3-C): the GI50 in assay [1], in assay [2], in [3], in [4], in assay [5] and in [6] was < 0.005 µM (active) in each case. For the same compound, the GI50 in assay [7] was < 0.005 µM (active); in assay [8] it was < 0.005 µM (active); in assay [9], < 0.005 µM (active); in [10] it was < 0.005 µM (active); in assay [11], < 0.005 µM (active); in assay [12] it was 0.0204 µM (active). In addition, the GI50 in assay [13] is < 0.005 µM (active); in [14], 0.0162 µM; in assay [15], < 0.005 µM (active); in assay [16], < 0.005 µM (active); in [17] it was < 0.005 µM (active); in assay [18], < 0.005 µM (active). Also, in assay [19], the GI50 is 0.0107 µM (active).

As for `CCCCCOC(=O)C(=O)Nc1[nH]nnc1C(N)=O`, the GI50 in assay [1], in assay [2], in assay [3], in [4], in assay [5] and in assay [6] was > 100 µM (inactive) throughout. Further, the GI50 in [7], in assay [8], in assay [9], in [10], in assay [11] and in assay [12] was > 100 µM (inactive) in each case. Moreover, the GI50 was > 100 µM (inactive) in assay [13]; greater than 100 µM in assay [14]; > 100 µM (inactive) in assay [15]; > 100 µM (inactive) in assay [16]; > 100 µM (inactive) in assay [17]; > 100 µM (inactive) in assay [18]. The GI50 in assay [19] was > 100 µM (inactive).

On to `COc1ccc(C2c3cc4c(cc3OC(NNC(N)=O)C2C)OCO4)cc1` (stereo not given), for which the GI50 was 7.23 µM (inactive) in assay [1]; 14.9 µM (inactive) in assay [2]; 6.28 µM (inactive) in [3]; 4.21 µM (inactive) in [4]; 21.5 µM (inactive) in assay [5]; 6.92 µM (inactive) in assay [6]. For the same compound, the GI50 in [7] is 16.5 µM (inactive); in [8], 6.85 µM (inactive); in [9], 2.14 µM (inactive); in assay [10], 1.87 µM (inactive); in assay [11], 2.86 µM (inactive); in assay [12], 10.6 µM (inactive). Also, the GI50 in assay [13] was 11.2 µM (inactive); in assay [14] it was 3.94 µM; in assay [15] it was 5.83 µM (inactive); in assay [16] it was 7.73 µM (inactive); in assay [17] it was 3.94 µM (inactive); in [18] it was 7.16 µM (inactive). Also, the GI50 in [19] was 6.71 µM (inactive).

Consider `COc1ccc(N2C(=O)CC(=O)N(C(=O)CCCCCCCCC(=O)N3C(=O)CC(=O)N(c4ccc(OC)cc4)C3=S)C2=S)cc1`, for which the GI50 in assay [1], in assay [2], in assay [3], in [4], in assay [5] and in assay [6] was > 100 µM (inactive) each time. Also, the GI50 is > 100 µM (inactive) in assay [7]; 57.9 µM (inactive) in assay [8]; 61.1 µM (inactive) in assay [9]; 57.4 µM (inactive) in assay [10]; 44.3 µM (inactive) in [11]; 79.6 µM (inactive) in assay [12]. For the same compound, the GI50 in assay [13] is > 100 µM (inactive); in assay [14], greater than 100 µM; in [15], > 100 µM (inactive); in [16], > 100 µM (inactive); in [17], 54.3 µM (inactive); in [18], > 100 µM (inactive). Further, the GI50 in [19] was > 100 µM (inactive).

Consider `CC1(C)OC2COC(c3n[nH]c4c(=O)[nH]c(=O)[nH]c34)C2O1` (stereo not given), for which the GI50 in assay [1], in assay [2], in assay [3], in assay [4], in assay [5] and in [6] was > 100 µM (inactive) throughout. For the same compound, the GI50 is 74 µM (inactive) in [7]; > 100 µM (inactive) in assay [8]; > 100 µM (inactive) in assay [9]; > 100 µM (inactive) in assay [10]; > 100 µM (inactive) in assay [11]; > 100 µM (inactive) in assay [12]. Also, the GI50 in assay [13] was > 100 µM (inactive); in assay [14], greater than 100 µM; in [15], > 100 µM (inactive); in assay [16], > 100 µM (inactive); in [17], > 100 µM (inactive); in assay [18], > 100 µM (inactive). In assay [19], the GI50 is > 100 µM (inactive).

Take `Cc1cc(/N=N/c2c(O)ccc3ccccc23)ccc1/N=N/c1cccc([N+](C)(C)C)c1`: the GI50 in assay [1] is 16 µM (inactive); in assay [2] it was 6.41 µM (inactive); in assay [3], 11.4 µM (inactive); in assay [4], 7.1 µM (inactive); in assay [5] it was 17.6 µM (inactive); in [6] it was 16.1 µM (inactive). In addition, the GI50 in assay [7] was 15.6 µM (inactive); in [8], 2.86 µM (inactive); in [9], 6.25 µM (inactive); in [10] it was 12.9 µM (inactive); in [11] it was 13.2 µM (inactive); in [12] it was 15.7 µM (inactive). Moreover, the GI50 in [13] was 10.7 µM (inactive); in assay [14], 31 µM; in [15] it was 14.7 µM (inactive); in [16], 12.1 µM (inactive); in [17], 10.8 µM (inactive); in assay [18], 7.11 µM (inactive). The GI50 in assay [19] is 22.7 µM (inactive).

On to `CCC1(CCSC(=N)N)C(=O)NC(=O)NC1=O`, for which the GI50 in assay [1], in assay [2], in assay [3], in [4], in assay [5] and in [6] was > 100 µM (inactive) each time. Moreover, the GI50 in [7], in [8], in [9], in assay [10], in assay [11] and in assay [12] was > 100 µM (inactive) in each case. Besides, the GI50 is > 100 µM (inactive) in assay [13]; greater than 100 µM in assay [14]; > 100 µM (inactive) in [15]; > 100 µM (inactive) in [16]; > 100 µM (inactive) in assay [17]; > 100 µM (inactive) in assay [18]. In addition, the GI50 in [19] was > 100 µM (inactive).

Take `CC(C)[C@](O)(C(=O)OCC1=CC[N+]2([O-])CC[C@@H](O)[C@@H]12)[C@H](C)O` (stereo not given in full) [INDICINE N-OXIDE]: the GI50 is > 10000 µM (inactive) in assay [1]; > 10000 µM (inactive) in [2]; 3590 µM (inactive) in [3]; > 10000 µM (inactive) in assay [4]; > 9060 µM (inactive) in assay [5]; 7460 µM (inactive) in assay [6]. Also, the GI50 was > 9730 µM (inactive) in assay [7]; > 7000 µM (inactive) in assay [8]; > 10000 µM (inactive) in [9]; > 10000 µM (inactive) in assay [10]; > 10000 µM (inactive) in [11]; > 10000 µM (inactive) in [12]. For the same compound, the GI50 was > 9930 µM (inactive) in assay [13]; greater than 10000 µM in [14]; 7210 µM (inactive) in assay [15]; 5960 µM (inactive) in [16]; 8570 µM (inactive) in assay [17]; 8870 µM (inactive) in assay [18]. Also, the GI50 in [19] is 6520 µM (inactive).

Regarding `Cc1c(CCOC=O)c(=O)[nH]c2nncn12`, the GI50 in assay [1], in assay [2], in assay [3], in assay [4], in [5] and in assay [6] was > 100 µM (inactive) throughout. The GI50 in [7], in [8], in assay [9], in [10], in [11] and in [12] was > 100 µM (inactive) each time. Further, the GI50 is > 100 µM (inactive) in assay [13]; greater than 100 µM in [14]; > 100 µM (inactive) in assay [15]; > 100 µM (inactive) in [16]; > 100 µM (inactive) in assay [17]; > 100 µM (inactive) in assay [18]. Also, the GI50 in [19] was > 10 µM (inactive).

Source of the values: ChEMBL document CHEMBL1201862, “PubChem BioAssay data set” (2004).
